Test results published in EP4741379A1, “CLASS OF PROGRAMMED CELL DEATH INHIBITORS, PREPARATION METHOD THEREFOR AND USE THEREOF” (SHANGHAI INSTITUTE OF ORGANIC CHEMISTRY, CHINESE ACADEMY OF …, priority 2023, dated 2025).
Where two headings read alike, the source gives them in different places.

Key:
[1] = system: L929 cells; assay: TNF-induced programmed necrosis of L929 cells (Cell Titer-Glo viability); assay type: cell-based, mouse; conditions: for EC50: Mus musculus
Experimental: (§1) The biological test protocol is adopted to test effects of the compound on TNF-induced programmed necrosis of FADD (Fas-associated death domain)-deficient Jurkat cells and L929 cells.
(§2) Two different stimulation methods were used: treating with tumor necrosis factor (TNFα) alone, or treating with TNFα in combination of mitochondrial-derived cysteine-aspartate activator (SMAC) SM164. Cell viability was determined by measuring chemiluminescence values, thereby assessing the bioactivity of the compounds in inhibiting programmed cell necrosis.
(§3) Method: FADD-deficient Jurkat cells: FADD-deficient Jurkat cells (human peripheral blood leukemia T cell line) were cultured in vitro. After reaching logarithmic growth phase, cells were collected and centrifuged at 1000 rpm for 5 minutes. A supernatant was discarded. A cell concentration was adjusted to 2.5×10^5/mL, and cells were seeded into a 384-well plate at 40 µL per well. In the corresponding wells, 5 µL of SM164 (50 nM) and compounds diluted with cell culture medium were added. After pre-treatment at 37°C for 1 hour, 5 µL of TNFα (50 ng/mL) diluted with cell culture medium was added to each well as a stimulation group, while 5 µL of culture medium was added as a control group. After the plate was incubated in a cell culture incubator (37°C, 5% CO2) for 14 hours, 15 µL of Cell Titer-Glo solution was added to each well. Then, the plate was incubated at room temperature for 30 minutes. Luminescence was measured to assess intracellular ATP levels. Cell viability was set at 100% for unstimulated DMSO control wells. […] The plate was placed in a cell culture incubator (37°C, 5% CO2) and cultured for 12 hours. In the corresponding wells, 5 µL of SM164 (500 nM) and compounds diluted with cell culture medium were added. After pre-treatment at 37°C for 1 hour, 5 µL of TNFα (500 ng/mL) diluted with cell culture medium was added to the wells as a stimulation group, while 5 µL of culture medium was added as a control group. After the plate was incubated in the cell incubator (37°C, 5% CO2) for 14 hours, 15 µL of Cell Titer-Glo solution was added to each well. Then, the plate was incubated at room temperature for 30 minutes, and luminescence was measured to assess intracellular ATP levels. Cell viability was set at 100% for unstimulated DMSO control wells. EC50 values of the compounds were calculated using Prism GraphPad statistical software.

[2] = system: FADD-deficient Jurkat cells; assay: TNF-induced programmed necrosis of FADD-deficient Jurkat cells (Cell Titer-Glo viability); assay type: cell-based, human; conditions: for EC50: Homo sapiens, Jurkat; for programmed necroptosis inhibitory activity compared to SAR443122: TNFα alone or TNFα + SM164, human derived FADD-deficient Jurkat cells
Experimental: as §1, §2, §3

[3] = biological target: T1, mouse derived RIPK1 (Mus musculus, UniProt Q60855); assay: Inhibitory activity against mouse derived RIPK1 (statement only); conditions: in words
T1 sequence (Q60855 1-656): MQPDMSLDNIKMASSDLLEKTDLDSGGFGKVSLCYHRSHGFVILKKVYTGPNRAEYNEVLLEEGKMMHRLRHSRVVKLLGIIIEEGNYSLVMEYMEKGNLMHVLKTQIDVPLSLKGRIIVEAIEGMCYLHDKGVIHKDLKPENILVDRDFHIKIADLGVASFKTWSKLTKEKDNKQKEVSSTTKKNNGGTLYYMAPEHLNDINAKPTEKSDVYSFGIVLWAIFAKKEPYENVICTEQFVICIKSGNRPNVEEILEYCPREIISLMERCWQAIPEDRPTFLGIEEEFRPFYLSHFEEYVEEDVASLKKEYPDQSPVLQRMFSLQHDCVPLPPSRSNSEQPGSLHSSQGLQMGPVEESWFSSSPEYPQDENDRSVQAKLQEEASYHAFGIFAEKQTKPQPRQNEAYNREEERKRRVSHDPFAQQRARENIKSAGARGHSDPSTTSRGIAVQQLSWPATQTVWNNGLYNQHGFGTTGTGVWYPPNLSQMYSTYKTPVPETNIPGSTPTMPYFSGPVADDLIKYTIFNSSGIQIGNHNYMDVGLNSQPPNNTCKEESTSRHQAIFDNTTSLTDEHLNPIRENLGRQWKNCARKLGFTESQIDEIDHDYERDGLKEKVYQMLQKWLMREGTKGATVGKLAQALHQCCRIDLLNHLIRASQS

[4] = L929, stimulation with TNFα + SM164, read-out: EC50 (nM) L929 cells (mouse-derived) TNFα+ SM164
[5] = L929, stimulation with TNFα alone, read-out: EC50 (nM) L929 cells (mouse-derived) TNFα
[6] = stimulation with TNFα + SM164, read-out: EC50 (nM) FADD^-/- Jurkat cells (human-derived) TNFα+ SM164
[7] = stimulation with TNFα alone, read-out: EC50 (nM) FADD^-/- Jurkat cells (human-derived) TNFα

C[C@H](NC(=O)c1nnn(C)c1Cc1ccccc1)c1ccc(C#CC2CC2)cc1 [QY-18-47]
EC50 [1, 4]: 73 nM | EC50 [1, 5]: 1 nM | EC50 [2, 6]: 61 nM | EC50 [2, 7]: 0.7 nM

C[C@H](NC(=O)c1nnn(C)c1Cc1ccccc1)c1ccc(C#Cc2cnoc2)cc1 [QY-18-77]
EC50 [1, 5]: 733 nM | EC50 [2, 6]: 32 nM | EC50 [2, 7]: 0.3 nM

C[C@H](NC(=O)c1cnn(C)c1Cc1ccccc1)c1ccc(C#Cc2ccccn2)cc1 [QY-20-2]
EC50 [1, 4]: 0.5 nM | EC50 [1, 5]: 0.1 nM | EC50 [2, 6]: 0.3 nM | EC50 [2, 7]: 0.03 nM

C[C@H](NC(=O)c1nnn(C)c1Cc1ccc(F)cc1)c1ccc(C#Cc2ccccn2)cc1 [QY-20-53]
EC50 [1, 4]: 0.1 nM | EC50 [1, 5]: 0.03 nM | EC50 [2, 6]: 0.05 nM | EC50 [2, 7]: < 0.01 nM | programmed necroptosis inhibitory activity compared to SAR443122 [2]: stronger

C[C@H](NC(=O)c1nnn(C)c1Cc1cccc(F)c1)c1ccc(C#Cc2ccccn2)cc1 [QY-20-54]
EC50 [1, 4]: 0.3 nM | EC50 [1, 5]: 0.05 nM | EC50 [2, 6]: < 0.01 nM | EC50 [2, 7]: < 0.01 nM | programmed necroptosis inhibitory activity compared to SAR443122 [2]: stronger

C[C@H](NC(=O)c1nnn(C)c1Cc1ccccc1)c1ccc(C#Cc2cncn2C)cc1 [QY-20-55]
EC50 [1, 4]: 23 nM | EC50 [1, 5]: 2.2 nM | EC50 [2, 6]: 1.4 nM | EC50 [2, 7]: 0.1 nM

CN1C(=O)[C@@H](NC(=O)c2nnc(Cc3ccccc3)[nH]2)COc2cccnc21 [SAR443122, reference compound]
EC50 ([1]; L929, read-out: EC50 (nM) L929 cells (mouse-derived) TNFα): > 1000 nM | programmed necroptosis inhibitory activity on mouse derived L929 cells ([1]; in words): nearly inactive | EC50 ([2]; read-out: EC50 (nM) FADD^-/- Jurkat cells (human-derived) TNFα): 0.9 nM | inhibitory activity against mouse derived RIPK1 [3]: very poor inhibitory activity
